In test [1] the target is Dual specificity protein kinase CLK2 (Homo sapiens) (UniProt P49760).
Test [2] has as its target Cyclin-dependent kinase 2 (Homo sapiens, UniProt P24941).
In test [3] the target is cAMP-dependent protein kinase catalytic subunit alpha (Homo sapiens) (UniProt P17612).
The target in test [4] is Calcium/calmodulin-dependent protein kinase type II subunit alpha (Homo sapiens) (UniProt Q9UQM7).
The target of test [5] is Serine/threonine-protein kinase PAK 6 (Homo sapiens) (UniProt Q9NQU5).
Serine/threonine-protein kinase PAK 6 (Homo sapiens), sequence (Q9NQU5 whole entry, looked up): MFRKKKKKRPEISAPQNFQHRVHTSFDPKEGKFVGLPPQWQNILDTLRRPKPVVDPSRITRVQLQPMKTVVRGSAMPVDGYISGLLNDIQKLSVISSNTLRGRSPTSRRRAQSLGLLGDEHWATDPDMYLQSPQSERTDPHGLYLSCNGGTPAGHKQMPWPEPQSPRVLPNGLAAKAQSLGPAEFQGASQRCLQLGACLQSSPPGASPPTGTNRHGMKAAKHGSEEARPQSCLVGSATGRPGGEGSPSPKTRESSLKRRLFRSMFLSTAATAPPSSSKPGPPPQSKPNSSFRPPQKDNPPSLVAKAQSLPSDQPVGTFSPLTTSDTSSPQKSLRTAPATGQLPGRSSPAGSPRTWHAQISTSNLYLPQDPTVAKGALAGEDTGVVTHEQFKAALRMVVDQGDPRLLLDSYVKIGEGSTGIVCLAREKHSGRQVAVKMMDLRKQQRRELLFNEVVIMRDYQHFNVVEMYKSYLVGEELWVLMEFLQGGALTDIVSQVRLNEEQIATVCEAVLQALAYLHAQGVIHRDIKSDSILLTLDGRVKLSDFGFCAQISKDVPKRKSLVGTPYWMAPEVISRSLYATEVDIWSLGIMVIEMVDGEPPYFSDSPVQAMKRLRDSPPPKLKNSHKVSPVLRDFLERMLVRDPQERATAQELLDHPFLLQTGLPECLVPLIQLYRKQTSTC
In test [6] the target is Serine/threonine-protein kinase RIO2 (Homo sapiens) (UniProt Q9BVS4).
Test [7] concerns the target Serine/threonine-protein kinase Nek6 (Homo sapiens) (UniProt Q9HC98).
Test [8] has as its target Calcium/calmodulin-dependent protein kinase type II subunit beta (Homo sapiens) (UniProt Q13554).
Test [9] addresses Serine/threonine-protein kinase Chk2 (Homo sapiens, UniProt O96017).
The target in test [10] is Serine/threonine-protein kinase pim-1 (Homo sapiens) (UniProt P11309).
Serine/threonine-protein kinase pim-1 (Homo sapiens), sequence (P11309 whole entry, looked up): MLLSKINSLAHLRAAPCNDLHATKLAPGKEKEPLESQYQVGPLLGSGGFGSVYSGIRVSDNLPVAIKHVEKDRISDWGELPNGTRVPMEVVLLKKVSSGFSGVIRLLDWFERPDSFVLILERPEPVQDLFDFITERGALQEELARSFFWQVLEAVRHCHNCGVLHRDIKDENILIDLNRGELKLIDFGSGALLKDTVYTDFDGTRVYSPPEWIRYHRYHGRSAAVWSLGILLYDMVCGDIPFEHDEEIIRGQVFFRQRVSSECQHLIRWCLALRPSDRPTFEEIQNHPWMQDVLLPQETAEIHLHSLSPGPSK
Test [11] addresses Death-associated protein kinase 3 (Homo sapiens) (UniProt O43293).
Test [12] has as its target Serine/threonine-protein kinase 10 (Homo sapiens) (UniProt O94804).
Test [13] deals with Serine/threonine-protein kinase OSR1 (Homo sapiens) (UniProt O95747).
Serine/threonine-protein kinase OSR1 (Homo sapiens), sequence (O95747 2-527 limits assumed): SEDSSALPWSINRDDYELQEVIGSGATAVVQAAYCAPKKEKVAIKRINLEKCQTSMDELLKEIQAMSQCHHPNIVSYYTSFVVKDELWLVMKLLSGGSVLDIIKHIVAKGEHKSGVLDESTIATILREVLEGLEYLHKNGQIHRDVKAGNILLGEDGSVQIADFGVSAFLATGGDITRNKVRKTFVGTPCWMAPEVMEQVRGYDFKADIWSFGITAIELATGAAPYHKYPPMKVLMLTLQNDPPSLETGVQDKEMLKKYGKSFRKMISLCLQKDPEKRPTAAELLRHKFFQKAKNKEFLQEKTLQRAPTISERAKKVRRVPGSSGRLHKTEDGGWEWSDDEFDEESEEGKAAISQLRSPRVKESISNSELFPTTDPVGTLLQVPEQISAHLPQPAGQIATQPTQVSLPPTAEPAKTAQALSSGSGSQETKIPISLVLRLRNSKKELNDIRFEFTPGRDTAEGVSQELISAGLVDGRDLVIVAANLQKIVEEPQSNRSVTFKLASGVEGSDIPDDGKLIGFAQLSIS
For test [14], the target named is T1, Myotonin-protein kinase (Homo sapiens) (UniProt Q09013).
T1 sequence (whole entry): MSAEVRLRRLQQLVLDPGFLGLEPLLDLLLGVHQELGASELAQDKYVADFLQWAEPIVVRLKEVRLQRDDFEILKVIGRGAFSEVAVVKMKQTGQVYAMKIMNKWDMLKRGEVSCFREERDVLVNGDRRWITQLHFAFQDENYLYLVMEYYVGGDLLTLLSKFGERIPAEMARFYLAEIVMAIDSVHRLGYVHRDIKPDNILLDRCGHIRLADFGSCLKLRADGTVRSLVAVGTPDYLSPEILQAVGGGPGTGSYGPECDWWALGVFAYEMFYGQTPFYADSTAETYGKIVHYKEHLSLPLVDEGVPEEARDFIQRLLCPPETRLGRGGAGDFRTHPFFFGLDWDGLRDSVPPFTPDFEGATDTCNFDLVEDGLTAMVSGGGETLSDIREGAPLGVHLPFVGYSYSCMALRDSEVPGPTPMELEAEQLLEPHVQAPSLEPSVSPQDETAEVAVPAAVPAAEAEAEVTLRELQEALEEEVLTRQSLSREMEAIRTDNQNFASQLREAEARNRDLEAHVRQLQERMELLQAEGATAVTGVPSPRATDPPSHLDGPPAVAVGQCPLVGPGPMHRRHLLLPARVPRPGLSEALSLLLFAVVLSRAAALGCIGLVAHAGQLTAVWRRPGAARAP

In test [15] the target is Serine/threonine-protein kinase 26 (Homo sapiens) (UniProt Q9P289).
Serine/threonine-protein kinase 26 (Homo sapiens), sequence (Q9P289 2-416 limits assumed): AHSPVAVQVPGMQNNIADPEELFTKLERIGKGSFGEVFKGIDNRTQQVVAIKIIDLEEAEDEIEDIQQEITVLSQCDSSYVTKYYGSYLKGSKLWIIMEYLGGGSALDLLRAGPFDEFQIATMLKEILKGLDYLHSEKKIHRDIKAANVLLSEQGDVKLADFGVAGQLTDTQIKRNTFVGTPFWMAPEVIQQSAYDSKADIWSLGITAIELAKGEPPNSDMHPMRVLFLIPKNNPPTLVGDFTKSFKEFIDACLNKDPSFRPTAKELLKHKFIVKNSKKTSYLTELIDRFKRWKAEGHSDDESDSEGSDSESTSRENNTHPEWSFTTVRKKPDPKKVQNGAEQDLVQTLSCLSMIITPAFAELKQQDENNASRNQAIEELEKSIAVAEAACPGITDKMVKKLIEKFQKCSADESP
Test [16] concerns the target Serine/threonine-protein kinase PLK1 (Homo sapiens) (UniProt P53350).
The target in test [17] is T2, Mitogen-activated protein kinase kinase kinase 5 (Homo sapiens) (UniProt Q99683).
T2 sequence (whole entry): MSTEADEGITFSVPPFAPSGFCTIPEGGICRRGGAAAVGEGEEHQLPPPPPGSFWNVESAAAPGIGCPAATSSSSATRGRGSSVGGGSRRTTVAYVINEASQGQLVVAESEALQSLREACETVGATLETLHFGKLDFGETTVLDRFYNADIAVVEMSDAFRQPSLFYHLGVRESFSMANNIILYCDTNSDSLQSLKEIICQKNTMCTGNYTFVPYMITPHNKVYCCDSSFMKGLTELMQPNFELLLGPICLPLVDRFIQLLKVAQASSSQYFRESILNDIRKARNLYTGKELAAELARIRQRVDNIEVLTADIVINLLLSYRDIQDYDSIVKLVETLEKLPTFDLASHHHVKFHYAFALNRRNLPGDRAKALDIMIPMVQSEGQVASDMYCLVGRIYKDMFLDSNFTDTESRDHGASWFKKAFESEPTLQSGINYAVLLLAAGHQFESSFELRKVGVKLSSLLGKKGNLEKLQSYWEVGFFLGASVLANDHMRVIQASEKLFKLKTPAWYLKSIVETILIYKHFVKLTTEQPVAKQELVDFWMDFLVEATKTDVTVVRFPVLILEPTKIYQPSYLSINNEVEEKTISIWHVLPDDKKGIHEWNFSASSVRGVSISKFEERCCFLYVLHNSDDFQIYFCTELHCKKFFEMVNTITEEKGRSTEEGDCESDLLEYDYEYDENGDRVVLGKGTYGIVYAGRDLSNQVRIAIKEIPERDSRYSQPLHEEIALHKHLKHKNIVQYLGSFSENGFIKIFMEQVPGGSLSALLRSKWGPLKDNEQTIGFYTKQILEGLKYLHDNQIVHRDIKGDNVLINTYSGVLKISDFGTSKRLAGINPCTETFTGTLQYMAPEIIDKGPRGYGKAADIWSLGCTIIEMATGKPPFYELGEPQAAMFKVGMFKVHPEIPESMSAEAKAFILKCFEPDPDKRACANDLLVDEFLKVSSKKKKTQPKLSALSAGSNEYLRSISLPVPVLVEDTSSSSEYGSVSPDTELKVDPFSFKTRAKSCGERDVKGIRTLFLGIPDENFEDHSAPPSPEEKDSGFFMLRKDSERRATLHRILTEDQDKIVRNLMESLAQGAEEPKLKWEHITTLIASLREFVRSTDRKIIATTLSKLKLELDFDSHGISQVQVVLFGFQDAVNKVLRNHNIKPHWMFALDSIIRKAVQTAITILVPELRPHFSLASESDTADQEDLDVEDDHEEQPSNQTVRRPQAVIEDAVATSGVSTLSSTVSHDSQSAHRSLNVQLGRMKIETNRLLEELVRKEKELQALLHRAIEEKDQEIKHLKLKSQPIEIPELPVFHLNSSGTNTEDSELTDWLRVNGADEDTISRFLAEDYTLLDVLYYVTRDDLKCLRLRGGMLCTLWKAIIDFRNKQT

Test [18] addresses Serine/threonine-protein kinase VRK2 (Homo sapiens) (UniProt Q86Y07).

This is an account of results in ChEMBL document CHEMBL1145498, “A systematic interaction map of validated kinase inhibitors with Ser/Thr kinases” (Proc Natl Acad Sci U S A, 2007).

The term ΔTm denotes the change in melting temperature against a reference sample.

Serine/threonine-protein kinase Nek6 (Homo sapiens), sequence (Q9HC98 whole entry): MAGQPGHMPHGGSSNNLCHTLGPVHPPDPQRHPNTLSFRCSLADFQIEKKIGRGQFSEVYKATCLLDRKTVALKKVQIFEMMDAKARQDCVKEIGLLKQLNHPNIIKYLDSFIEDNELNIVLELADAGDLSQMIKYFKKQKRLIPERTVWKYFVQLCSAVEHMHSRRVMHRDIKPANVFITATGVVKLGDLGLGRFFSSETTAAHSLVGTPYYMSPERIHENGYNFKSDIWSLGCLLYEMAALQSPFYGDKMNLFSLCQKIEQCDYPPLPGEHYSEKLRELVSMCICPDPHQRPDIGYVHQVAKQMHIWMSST
Serine/threonine-protein kinase 10 (Homo sapiens), sequence (O94804 whole entry, looked up): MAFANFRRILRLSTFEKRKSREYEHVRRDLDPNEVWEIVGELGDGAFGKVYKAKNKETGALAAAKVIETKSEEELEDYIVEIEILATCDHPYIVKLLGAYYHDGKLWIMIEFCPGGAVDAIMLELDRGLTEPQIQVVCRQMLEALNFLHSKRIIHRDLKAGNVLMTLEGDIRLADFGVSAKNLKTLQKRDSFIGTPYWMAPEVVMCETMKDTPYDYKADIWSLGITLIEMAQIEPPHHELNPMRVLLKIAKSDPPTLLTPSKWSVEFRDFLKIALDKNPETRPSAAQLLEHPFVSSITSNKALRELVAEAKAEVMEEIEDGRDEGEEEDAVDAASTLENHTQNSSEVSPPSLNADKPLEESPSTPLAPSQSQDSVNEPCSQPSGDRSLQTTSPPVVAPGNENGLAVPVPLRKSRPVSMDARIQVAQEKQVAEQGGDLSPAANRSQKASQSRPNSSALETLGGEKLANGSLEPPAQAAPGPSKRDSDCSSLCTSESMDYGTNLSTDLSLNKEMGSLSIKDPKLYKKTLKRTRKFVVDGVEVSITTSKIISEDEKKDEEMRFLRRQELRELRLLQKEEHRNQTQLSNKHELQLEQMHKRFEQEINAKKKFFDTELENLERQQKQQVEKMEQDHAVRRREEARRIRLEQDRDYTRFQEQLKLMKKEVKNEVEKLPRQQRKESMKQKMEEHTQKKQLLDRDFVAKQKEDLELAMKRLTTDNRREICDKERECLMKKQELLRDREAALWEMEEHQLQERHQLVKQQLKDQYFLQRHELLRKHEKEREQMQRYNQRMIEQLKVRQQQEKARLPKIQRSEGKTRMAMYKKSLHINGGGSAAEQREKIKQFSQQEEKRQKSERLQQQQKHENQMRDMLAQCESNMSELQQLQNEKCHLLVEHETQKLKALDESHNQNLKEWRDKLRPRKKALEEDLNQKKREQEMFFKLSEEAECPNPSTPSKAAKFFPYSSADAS
Calcium/calmodulin-dependent protein kinase type II subunit beta (Homo sapiens), sequence (Q13554 whole entry): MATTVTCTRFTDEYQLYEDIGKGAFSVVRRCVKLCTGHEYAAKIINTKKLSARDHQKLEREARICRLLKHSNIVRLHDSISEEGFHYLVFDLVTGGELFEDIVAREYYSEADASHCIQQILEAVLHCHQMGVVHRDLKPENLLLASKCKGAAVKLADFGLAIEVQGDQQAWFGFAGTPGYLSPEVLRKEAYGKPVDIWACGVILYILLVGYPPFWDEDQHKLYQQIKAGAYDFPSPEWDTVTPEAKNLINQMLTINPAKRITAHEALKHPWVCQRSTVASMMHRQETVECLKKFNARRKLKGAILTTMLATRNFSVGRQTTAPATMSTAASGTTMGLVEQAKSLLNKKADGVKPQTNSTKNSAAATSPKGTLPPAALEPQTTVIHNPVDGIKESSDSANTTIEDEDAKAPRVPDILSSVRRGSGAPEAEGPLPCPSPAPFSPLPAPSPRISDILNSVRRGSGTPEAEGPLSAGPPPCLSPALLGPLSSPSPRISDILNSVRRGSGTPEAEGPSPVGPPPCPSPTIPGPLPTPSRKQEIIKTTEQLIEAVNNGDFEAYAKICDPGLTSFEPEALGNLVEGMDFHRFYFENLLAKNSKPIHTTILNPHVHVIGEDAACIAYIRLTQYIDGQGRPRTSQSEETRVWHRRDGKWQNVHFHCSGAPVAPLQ
Dual specificity protein kinase CLK2 (Homo sapiens), sequence (P49760 whole entry, looked up): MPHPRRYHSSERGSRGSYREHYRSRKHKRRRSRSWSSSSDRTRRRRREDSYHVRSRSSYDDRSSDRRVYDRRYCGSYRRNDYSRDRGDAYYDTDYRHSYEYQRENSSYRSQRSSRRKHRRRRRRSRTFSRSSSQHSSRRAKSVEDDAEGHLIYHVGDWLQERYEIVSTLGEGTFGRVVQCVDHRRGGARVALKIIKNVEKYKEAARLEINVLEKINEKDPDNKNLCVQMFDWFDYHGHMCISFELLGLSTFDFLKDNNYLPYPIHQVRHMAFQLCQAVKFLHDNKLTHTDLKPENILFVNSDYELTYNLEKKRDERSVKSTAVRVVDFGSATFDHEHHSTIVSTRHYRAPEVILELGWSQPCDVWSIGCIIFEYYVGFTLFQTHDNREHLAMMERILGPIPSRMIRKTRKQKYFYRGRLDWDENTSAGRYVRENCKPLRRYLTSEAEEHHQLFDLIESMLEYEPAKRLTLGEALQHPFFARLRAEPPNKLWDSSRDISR
Calcium/calmodulin-dependent protein kinase type II subunit alpha (Homo sapiens), sequence (Q9UQM7 whole entry): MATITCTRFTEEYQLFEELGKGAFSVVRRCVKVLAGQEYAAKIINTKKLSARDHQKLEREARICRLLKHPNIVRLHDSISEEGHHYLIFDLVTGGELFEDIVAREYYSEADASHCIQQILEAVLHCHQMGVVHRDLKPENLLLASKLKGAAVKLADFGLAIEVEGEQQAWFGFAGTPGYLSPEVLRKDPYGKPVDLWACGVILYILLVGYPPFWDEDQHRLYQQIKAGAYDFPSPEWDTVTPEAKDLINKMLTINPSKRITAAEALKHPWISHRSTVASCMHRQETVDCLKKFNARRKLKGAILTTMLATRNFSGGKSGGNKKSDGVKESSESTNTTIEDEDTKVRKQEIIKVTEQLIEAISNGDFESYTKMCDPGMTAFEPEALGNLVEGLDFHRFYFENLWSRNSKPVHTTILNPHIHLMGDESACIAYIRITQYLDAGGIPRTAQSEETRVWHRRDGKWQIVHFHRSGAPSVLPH

On to `Cn1cc(/C=C2/C(=O)Nc3ccc(S(N)(=O)=O)cc32)c2ccccc21`, for which the ΔTm in [1] is 3.6 °C; in test [2], 1.3 °C; in test [3] it was 0.9 °C; in [4] it was 2.7 °C; in [5], -0.6 °C; in [6], 5 °C. The ΔTm in test [7] is 1.7 °C; in [8], 0.1 °C; in test [9], 10.6 °C; in test [10], 3.1 °C; in test [11], 0.3 °C; in test [12], 6.3 °C. Moreover, the ΔTm is 3.7 °C in test [13]; 3.7 °C in test [14]; -0.2 °C in test [15]; -0.7 °C in test [16]; 1 °C in [17].

`CN1CCC(Nc2ncc3ncnc(Nc4ccc(F)c(Cl)c4)c3n2)CC1` [FALNIDAMOL]: the ΔTm is 4.2 °C in test [1]; 0.1 °C in [2]; 0.4 °C in test [3]; -0.2 °C in test [4]; 2.9 °C in [5]; -0.4 °C in test [6]. For the same compound, the ΔTm in [7] is 1.5 °C; in test [8], -0.4 °C; in test [9], 0.2 °C; in test [10] it was 5.2 °C; in test [11] it was 0.3 °C; in test [13] it was 1.4 °C. Also, the figures for the ΔTm in test [14], in test [16] and in test [17] were 1.4 °C, 1.1 °C and 1.3 °C, respectively.

On to `CN[C@@H]1CC2O[C@@](C)([C@@H]1OC)n1c3ccccc3c3c4c(c5c6ccccc6n2c5c31)C(=O)NC4`, for which the ΔTm in [1] was determined as 6.9 °C; in test [3], 11.3 °C; in [18], 2 °C; in [4], 16.3 °C; in test [5], 16.8 °C; in [6] it was 0.5 °C. Moreover, the ΔTm in [7] is -0.3 °C; in [11], 13 °C; in [12], 24.8 °C; in test [13], 6.9 °C; in test [14] it was 14.1 °C; in test [15], 8.8 °C. Besides, in test [17], the ΔTm amounted to 16.3 °C.

Turning to `Nc1n[nH]c2nnc(-c3c(-c4ccccc4)nn4ccccc34)cc12`, the thermal shift (ΔTm) in [1] was 0.5 °C; in test [2], 0.1 °C; in test [3] it was 0.3 °C; in test [4] it was -0.4 °C; in test [5], 0.1 °C; in test [6], -0.4 °C. For the same compound, the ΔTm was 0.3 °C in [7]; -0.6 °C in [8]; 0.9 °C in [9]; 1.1 °C in [10]; 3.9 °C in test [11]; -0.2 °C in test [12]. The ΔTm in test [13] was 0.3 °C; in test [14] it was 2.3 °C; in test [15], -0.1 °C; in test [16] it was -0.3 °C; in [17], 0.6 °C.

Regarding `CCN(CC)CCNC(=O)c1c(C)[nH]c(/C=C2\C(=O)Nc3ccc(F)cc32)c1C`, the ΔTm in test [1] was determined as 5.9 °C; in test [3], 9.2 °C; in test [4], 5 °C; in test [5], 3.5 °C; in test [6], 6 °C; in test [7] it was 3.4 °C. For the same compound, the ΔTm in [8] is 2.2 °C; in test [9], 12.9 °C; in test [10], 2.3 °C; in test [11], 0.3 °C; in test [12] it was 11.3 °C; in test [13] it was 3 °C. In addition, the thermal shift (ΔTm) in [14] was 2.7 °C; in [15], -0.1 °C; in [16], 1.5 °C; in test [17] it was -0.6 °C.

In the case of `COc1ccc(COc2ccc(Cc3cnc(N)nc3N)cc2OC)cc1`, the ΔTm was -0.2 °C in test [1]; -0.2 °C in test [3]; -0.1 °C in test [4]; 0.1 °C in test [5]; 0.2 °C in test [6]; -0.2 °C in [7]. The ΔTm is -0.2 °C in test [8]; 0.1 °C in [9]; 0 °C in [10]; 0.3 °C in test [11]; -0.5 °C in [12]; 0.3 °C in test [13]. In addition, the shift in melting temperature (ΔTm) in test [14] is 0.1 °C; in [15], 0 °C; in [16] it was -1 °C; in [17] it was -0.2 °C.

Regarding `Cc1nc(Nc2ncc(C(=O)Nc3c(C)cccc3Cl)s2)cc(N2CCN(CCO)CC2)n1`, the ΔTm in test [1] was found to be 0.1 °C; in test [2] it was 0.2 °C; in test [3], 0.4 °C; in test [4], 0 °C; in [5], 2.1 °C; in test [6], 2.3 °C. In addition, the ΔTm is 0.2 °C in test [7]; -0.3 °C in [8]; 1.2 °C in test [9]; 0.3 °C in test [10]; 0 °C in test [11]; 0.4 °C in test [13]. The ΔTm in [14] was 4.6 °C; in [16], 2.4 °C; in test [17], 0.2 °C.

For the compound `Clc1ccc(Nc2nnc(Cc3ccncc3)c3ccccc23)cc1`, the ΔTm in test [1] is -0.6 °C; in test [2] it was -0.5 °C; in [3] it was 0.2 °C; in test [4], 0.4 °C; in test [5] it was 0 °C; in [6], -0.8 °C. Further, the shift in melting temperature (ΔTm) in [7] was 0.1 °C; in test [8], -0.3 °C; in test [9], 0.2 °C; in test [10], -0.2 °C; in [11] it was 0 °C; in test [13] it was 0.8 °C. For the same compound, the results for the ΔTm in test [14], in test [16] and in test [17] were -0.5 °C, 0 °C and -0.1 °C, respectively.
